Laboratory results published in PubChem BioAssay (NCI).
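Interpolation was linear, between the two tested concentrations surrounding the appropriate level; five concentrations were tested over 48 hours in 96-well plates. The concentration for full growth arrest is given as TGI.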

Legend:
Test in all cases: DTP human tumour cell line panel, 48 h
[1] = system: NCI-H226 lung
[2] = system: NCI/ADR-RES ovarian
[3] = system: SN12C renal
[4] = system: KM12 colon
[5] = system: HCT-15 colon
[6] = system: OVCAR-3 ovarian
[7] = system: M14 melanoma
[8] = system: MOLT-4 leukemia
[9] = system: SNB-19 CNS
[10] = system: MALME-3M melanoma
[11] = system: SK-MEL-28 melanoma
[12] = system: TK-10 renal
[13] = system: A549 NSCLC
[14] = system: RXF 393 renal
[15] = system: OVCAR-5 ovarian
[16] = system: NCI-H460 lung
[17] = system: SK-MEL-5 melanoma
[18] = system: 786-0 renal
[19] = system: U251 CNS
[20] = system: A498 renal
[21] = system: OVCAR-4 ovarian
[22] = system: SW-620 colon
[23] = system: SNB-75 CNS
[24] = system: CCRF-CEM leukemia
[25] = system: HOP-92 NSCLC
[26] = system: HS 578T breast
[27] = system: K-562 leukemia
[28] = system: NCI-H522 lung
[29] = system: OVCAR-8 ovarian
[30] = system: DU-145 prostate
[31] = system: HL-60(TB) leukemia
[32] = system: SF-295 CNS
[33] = system: UACC-62 melanoma
[34] = system: MDA-N
[35] = system: SK-MEL-2 melanoma
[36] = system: UO-31 renal
[37] = system: IGROV1 ovarian
[38] = system: NCI-H23 lung
[39] = system: MDA-MB-231 breast
[40] = system: HT29 colon
[41] = system: ACHN renal
[42] = system: UACC-257 melanoma
[43] = system: MCF7 breast
[44] = system: HOP-62 NSCLC
[45] = system: COLO 205 colon
[46] = system: CAKI-1 renal
[47] = system: SF-539 CNS
[48] = system: HCT-116 colon
[49] = system: HCC-2998 colon
[50] = system: EKVX NSCLC
[51] = system: RPMI-8226 leukemia
[52] = system: T-47D breast
[53] = system: BT-549 breast
[54] = system: SR leukemia
[55] = system: MDA-MB-435
[56] = system: LOX IMVI melanoma
[57] = system: SK-OV-3 ovarian
[58] = system: PC-3 prostate
[59] = system: SF-268 CNS

Measured: TGI

CC(C)NC(=O)OCc1c(COC(=O)NC(C)C)c(-c2ccc[n+](COC(=O)Cc3ccccc3)c2)n2c1CCC2
34 µM: [46]
46.2 µM: [25]
69.6 µM: [38]
44.4 µM: [18]
97.2 µM: [10]
66.6 µM: [53]
67.7 µM: [30]
44.7 µM: [20] | [33]
74.7 µM: [39]
62.1 µM: [35]
67.3 µM: [14]
48.4 µM: [41]
70.8 µM: [36]
50.5 µM: [22]
36.2 µM: [28]
57.8 µM: [21]
68 µM: [59]
> 100 µM: all other assays above
